Measured values as given in US20220079931A1, “ESTROGEN RECEPTOR PROTEIN DEGRADERS” (THE REGENTS OF THE UNIVERSITY OF MICHIGAN, priority 2019, published 2022).

Key:
[1] = system: MCF-7 cells; assay: WST-8 cell proliferation assay in MCF-7 cells; format: cell-based, human
Procedure: Cell Culture. Human breast cancer cell lines MCF-7 (ATCC® HTB-22™) and T47D (ATCC® HTB-133™) were purchased from the American Type Culture Collection (ATCC), Manassas, Va., and maintained and cultured in Dulbecco's Modified Eagle's medium (DMEM) containing 10% fetal bovine serum, 1 unit/ml of penicillin and 1 μg/ml of streptomycin. Cells with 3-8 passages after purchase were used in experiments as indicated.
(§1) Cell Growth Assay. Cells were seeded at 1500/well in 96 well plates overnight. One day after seeding, they were treated with indicated doses of compounds. The growth of the cells was evaluated by colorimetric WST-8 assay 4 days after the compound treatment following the instructions of the manufacturer, Cayman Chemical, Ann Arbor, Mich.
(§2) Fulvestrant achieves an Imax value of 43.8%. […] RAD1901, a previously reported SERD molecule^18, achieves an Imax value of 25.7%.

[2] = system: MDA-MB-231; assay: Cell proliferation in triple-negative breast cancer cells; format: cell-based, human; settings: MDA-MB-231 triple-negative breast cancer cells
Procedure: as §1, §2

[3] = system: primary human mammary epithelial cells; assay: Cell proliferation in primary human mammary epithelial cells; format: cell-based
Procedure: as §1, §2

[4] = target: T1, ERα (Homo sapiens, UniProt P03372); assay: ER degradation by Western blotting in T47D cells; format: cell-based; parameters: Dmax: dose or concentration left out as unconfirmed
T1 sequence (P03372 1-595): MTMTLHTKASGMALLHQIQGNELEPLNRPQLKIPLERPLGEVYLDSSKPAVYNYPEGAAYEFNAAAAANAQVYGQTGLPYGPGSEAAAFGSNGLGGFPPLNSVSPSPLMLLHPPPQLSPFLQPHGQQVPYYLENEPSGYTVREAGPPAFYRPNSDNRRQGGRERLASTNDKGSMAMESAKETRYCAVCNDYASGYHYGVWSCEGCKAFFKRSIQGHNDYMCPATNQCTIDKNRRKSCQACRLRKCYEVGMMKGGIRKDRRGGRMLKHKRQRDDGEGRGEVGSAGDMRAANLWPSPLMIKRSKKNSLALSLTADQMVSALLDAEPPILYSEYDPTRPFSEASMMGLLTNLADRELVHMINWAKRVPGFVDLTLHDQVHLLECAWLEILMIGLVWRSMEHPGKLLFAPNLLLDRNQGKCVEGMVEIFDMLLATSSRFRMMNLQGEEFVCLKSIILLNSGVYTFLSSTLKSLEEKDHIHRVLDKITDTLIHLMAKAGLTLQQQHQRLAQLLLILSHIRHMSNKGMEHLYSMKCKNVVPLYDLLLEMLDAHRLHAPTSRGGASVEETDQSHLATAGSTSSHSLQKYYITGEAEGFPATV
Procedure: FIG. 8 is an image showing the ERα degradation dose-response Western blotting for compound 32 at 4 h in T47D cells. […] Cell Culture. Human breast cancer cell lines MCF-7 (ATCC® HTB-22TM) and T47D (ATCC® HTB-133TM) were purchased from the American Type Culture Collection (ATCC), Manassas, Va., and maintained and cultured in Dulbecco's Modified Eagle's medium (DMEM) containing 10% fetal bovine serum, 1 unit/ml of penicillin and 1 μg/ml of streptomycin. Cells with 3-8 passages after purchase were used in experiments as indicated. Western Blot Analysis. Western blot analysis was performed essentially as described previously (Hu et al, 2015, PMID: 26358219). Cells treated with indicated compounds were lysed in Radioimmunoprecipitation Assay Protein Lysis and Extraction Buffer (25 mmol/L Tris.HCl, pH 7.6, 150 mmol/L NaCl, 1% Nonidet P-40, 1% sodium deoxycholate, and 0.1% sodium dodecyl sulfate) containing proteinase inhibitor cocktail (Roche Diagnostics, Mannheim, Germany). After determination of protein concentration by BCA assay (Fisher Scientific, Pittsburgh, Pa.), equal amounts of total protein were electrophoresed through 10% SDS-polyacrylamide gels. The separated protein bands were transferred onto PVDF membranes (GE Healthcare Life Sciences, Marlborough, Mass.) and blotted against different antibodies, as indicated. The human estrogen receptor a antibodies (AB16460) were purchased from Abeam, Inc., Cambridge, Mass. The membranes were reblotted with horseradish peroxidase-conjugated anti-glyceraldehyde-3-phosphate dehydrogenase antibody ([…]) from Sigma-Aldrich Corporation, St. Louis, Mo. The blots were scanned and the band intensities were quantified using GelQuant.NET software as described in biochemlabsolutions.com. The relative mean intensity of target proteins was expressed after normalization to the intensity of glyceraldehyde-3-phosphate dehydrogenase bands from individual repeats.

[5] = target: T1, ERα; assay: Mechanism of ER degradation: pretreatment with VHL ligand, ER ligand or proteasome inhibitor, Western blotting in MCF-7 cells; format: cell-based; parameters: host or cells: MCF-7; settings: 32 at 30 nM 4 h
Procedure: (§3) Then whole-cell lysates were analyzed by Western blotting.
as §3
Western Blot Analysis. […] Cells treated with indicated compounds were lysed in Radioimmunoprecipitation Assay Protein Lysis and Extraction Buffer (25 mmol/L Tris.HCl, pH 7.6, 150 mmol/L NaCl, 1% Nonidet P-40, 1% sodium deoxycholate, and 0.1% sodium dodecyl sulfate) containing proteinase inhibitor cocktail (Roche Diagnostics, Mannheim, Germany). After determination of protein concentration by BCA assay (Fisher Scientific, Pittsburgh, Pa.), equal amounts of total protein were electrophoresed through 10% SDS-polyacrylamide gels. The separated protein bands were transferred onto PVDF membranes (GE Healthcare Life Sciences, Marlborough, Mass.) and blotted against different antibodies, as indicated. The human estrogen receptor a antibodies (AB16460) were purchased from Abeam, Inc., Cambridge, Mass. The membranes were reblotted with horseradish peroxidase-conjugated anti-glyceraldehyde-3-phosphate dehydrogenase antibody (G9295) from Sigma-Aldrich Corporation, St. Louis, Mo. The blots were scanned and the band intensities were quantified using GelQuant.NET software as described in biochemlabsolutions.com. The relative mean intensity of target proteins was expressed after normalization to the intensity of glyceraldehyde-3-phosphate dehydrogenase bands from individual repeats.

[6] = system: MCF-7 cells; assay: Crystal violet staining experiment in MCF-7 cells; settings: 10 nM, 100 nM and 300 nM, versus raloxifene and fulvestrant

For `CCN(CCCCCOCC(=O)N[C@H](C(=O)N1C[C@H](O)C[C@H]1C(=O)N[C@@H](C)c1ccc(-c2scnc2C)cc1)C(C)(C)C)CCOc1ccc(C(=O)c2c(-c3ccc(O)cc3)sc3cc(O)ccc23)cc1` [compound 32, (2S,4R)-1-((S)-2-(2-((5-(Ethyl(2-(4-(6-hydroxy-2-(4-hydroxyphenyl)benzo[b]thiophene-3-carbonyl)phenoxy)ethyl)amino)pentyl)oxy)acetamido)-3,3-dimethylbutanoyl)-4-hydroxy-N—((S)-1-(4-(4-methylthiazol-5-yl)phenyl)ethyl)pyrrolidine-2-carboxamide], the IC50 ([1]; Homo sapiens, MCF7, 96 h, read-out: IC50, inhibition of cell proliferation) was 0.77 nM, the “maximum inhibition (Imax)” value ([1]; MCF-7 cells, WST-8, 4 days) was 57.5% and the cell proliferation inhibition [2] was “does not exhibit the cell proliferation inhibition effects”. For the same compound, the cell proliferation inhibition [3] was “does not exhibit the cell proliferation inhibition effects”, the hook effect ([4]; T47D cells, 1 μM) was “demonstrates a hook effect” and the DC50 ([4]; T47D cells, 4 h) was 0.43 nM. For the same compound, the Dmax ([4]; T47D, read-out: maximum degradation) was > 95%, the “blocking of ER degradation by compound 32 with 1 μM VHL ligand 11” value ([5]; 1 μM VHL ligand 11 pretreatment 2 h) was “only slightly” and the “ER degradation induced by compound 32 on addition of carfilzomib” value ([5]; 1 μM proteasome inhibitor carfilzomib pretreatment 2 h) was “significantly reduced”. For the same compound, the “ER degradation induced by compound 32 on addition of raloxifene” value ([5]; 1 μM raloxifene pretreatment 2 h) was “significantly reduced”, the “blocking of ER degradation by compound 32 with 5 μM or 10 μM VHL ligand 11” value ([5]; 5 μM or 10 μM of 11 pretreatment 2 h) was “completely blocked” and the “reduction of cell proliferation (crystal violet staining)” value [6] was “reduced cell proliferation more significantly than raloxifene or fulvestrant”.
